Measurements: ChEMBL document CHEMBL6177965, “Sealgamide: An Antitrypanosomal Lipopeptide Isolated from a Marine Okeania sp. Cyanobacterium” (J Nat Prod, 2025)

Columns and labels:
[1] = test system: Trypanosoma brucei rhodesiense; test: Antitrypanosomal activity against Trypanosoma brucei rhodesiense IL-1501 incubated for 69 hrs by Alamar blue staining based analysis; assay type: functional, organism-based; conditions: IL-1501, 69 h
[2] = test system: Plasmodium falciparum; test: Antimalarial activity against Plasmodium falciparum 3D7 infected in RBC incubated for 72 hrs by LDH assay; assay type: functional, organism-based; conditions: 3D7, Erythrocyte
[3] = test system: HeLa; test: Cytotoxicity against human HeLa cells assessed as inhibition of cell growth incubated for 72 hrs by MTT assay; assay type: functional, cell-based

Structure (SMILES) | IC50 [1] | IC50 [2] | IC50 [3]
N=C(N)c1ccc(OCCCCCOc2ccc(C(=N)N)cc2)cc1 [PENTAMIDINE] | 9 nM | – | –
CCC[C@@H](C[C@@H](CC(=O)N(C)[C@@H](C(=O)N[C@H](C)C(=O)N[C@H](CC(C)C)C(=O)N(C)[C@@H](CC(C)C)C(=O)N[C@H](C(=O)N(C)[C@H](C(=O)N(C)[C@@H](CCC(N)=O)C(=O)N[C@@H](Cc1ccccc1)C(=O)N(C)[C@@H](CCC(N)=O)C(=O)N(C)[C@@H](Cc1ccc(OC)cc1)C(=O)O)C(C)C)[C@@H](C)O)[C@@H](C)CC)OC)OC | 2900 nM | > 25000 nM | > 30000 nM
CCC[C@@H](C[C@@H](CC(=O)N(C)[C@@H](C(=O)N(C)[C@H](C)C(=O)N[C@H](CC(C)C)C(=O)N(C)[C@@H](CC(C)C)C(=O)N[C@H](C(=O)N(C)[C@H](C(=O)N(C)[C@@H](CCC(N)=O)C(=O)N[C@@H](Cc1ccccc1)C(=O)N(C)[C@@H](CCC(N)=O)C(=O)N(C)[C@@H](Cc1ccc(OC)cc1)C(=O)OC)C(C)C)[C@@H](C)O)[C@@H](C)CC)OC)OC | 650 nM | 2100 nM | > 30000 nM
